Experimental data from PMC2362906, “Effects of new 17α-hydroxylase/C17,20-lyase inhibitors on LNCaP prostate cancer cell growth in vitro and in vivo” (British Journal of Cancer, 1999).

Columns and labels:
[1] = test system: LNCaP cells; experiment: DHT-stimulated wild-type LNCaP cell growth; assay type: cell-based, human; conditions: 0.03 nM DHT, 9 days
Source text: (§1) Prostate cancer is the most common malignancy and the second leading cause of cancer-related deaths among men in the US and the UK (Shibata et al, 1998). […] Steroidal 17-hydroxylase/C17,20 -lyase (P450c17) (EC 1.14.99.0) was selected as the target enzyme for inhibition, as this is a key regulatory enzyme of androgen synthesis. P450c17 catal- yses two sequential reactions in the steroid biosynthetic pathway and converts pregnenolone and progesterone to the C-19 andro- gens, dehydroepiandrosterone and androstenedione respectively. This enzyme has an identical amino acid sequence in testicular and adrenal tissues (Chung et al, 1987). […] In order to evaluate the effectiveness of these inhibitors we developed a multi-step system, which utilized the LNCaP human prostate cancer cell line. LNCaP cells remain the only androgen receptor (AR)-positive prostate cancer cell line, that can be readily grown in tissue culture (Horoszewicz et al, 1983). These cells respond to androgens with increased cell proliferation and elevated expression of prostate specific antigen (PSA) (Berns et al, 1993). LNCaP cells at early passages are not only androgen-responsive, but also androgen- dependent (Pousette et al, 1997). This is similar to the situation in most tumours of prostatic cancer patients, which are initially highly responsive and dependent on androgens. […] Therefore, we employed LNCaP cells as a model for evaluating the effectiveness of our new inhibitors of androgen synthesis. In this study the compounds selected for evaluation were two groups of azolyl steroids. […] Here we report on the application of LNCaP-CYP17-transfected cells for determining the inhibitory potencies of the new compounds against the P450c17 enzyme. […] We designed and evaluated two groups of azolyl steroids: 5-non-competitive inhibitors (5NCIs), VN/63-1, VN/85-1, VN/87-1 and their corresponding 4 derivatives (4NCIs), VN/107-1, VN/108-1 and VN/109-1. The human P450c17 gene was transfected into LNCaP human prostate cancer cells, and the resultant LNCaP- CYP17 cells were utilized to evaluate the inhibitory potency of the new azolyl steroids. […] We further evaluated our inhibitors in male severe combined immuno- deficient mice bearing LNCaP tumour xenografts. […] We also utilized wild-type LNCaP prostatic carcinoma cells for evaluating the direct effects of new azolyl steroids on proliferation of these cells in vitro and in vivo. MATERIALS AND METHODS Materials The human prostate cancer cell line LNCaP was obtained from the American Type Culture Collection (Rockville, MD, USA). RPMI- 1640 medium, trypsin-EDTA (0.25%/0.02%), penicillin/strepto- mycin (P/S), geniticin (G418), and LipofectAMINE were from Gibco-BRL (Grand Island, NY, USA). Fetal bovine serum (FBS) was obtained from Summit Biotechnology Inc. (Fort Collins, CO, USA) and steroid-free FBS was prepared as described previously (Klus et al, 1996). Phenol red free IMEM and trypsin-versine were purchased from Biofluids Inc. (Rockville, MD, USA). Chloroform and acetonitrile were purchased from JT Baker, Inc (Phillipsburg, NJ, USA). Hydroxypropyl cellulose (HPC) was purchased from Sigma Chemical Co. (St Louis, MO, USA). The PSA enzyme- linked immunusorbent assay (ELISA) kit was from DSL Inc. (Webster, TX, USA). Matrigel was generously supplied by Dr Hynda Kleinman (NIH, Bethesda, MD, USA). Inhibitors of androgen synthesis: VN/63-1, VN/85-1, VN/87-1, VN/107-1, VN/108-1 and VN/109-1 were synthesized in our labo- ratory as previously described (Njar et al, 1998). […] Metribolone [17-methyl-3 H]-R1881 ([3 H]-R1881: specific activity 86 Ci mmol-1 ) was purchased from Dupont NEN (Boston, MA, USA).

[2] = target: T1, human 17α-hydroxylase/C17,20-lyase (P450c17) expressed in LNCaP-CYP17 cells (Homo sapiens, UniProt P05093); experiment: [3H]-acetic acid releasing assay (AARA) with LNCaP-CYP17 cells; assay type: cell-based; conditions: LNCaP-CYP17 cells, 7 μM [21-3H]17-OHP5, 16 h; mean ± s.e.m., three experiments
T1 sequence (P05093 9-508 limits assumed): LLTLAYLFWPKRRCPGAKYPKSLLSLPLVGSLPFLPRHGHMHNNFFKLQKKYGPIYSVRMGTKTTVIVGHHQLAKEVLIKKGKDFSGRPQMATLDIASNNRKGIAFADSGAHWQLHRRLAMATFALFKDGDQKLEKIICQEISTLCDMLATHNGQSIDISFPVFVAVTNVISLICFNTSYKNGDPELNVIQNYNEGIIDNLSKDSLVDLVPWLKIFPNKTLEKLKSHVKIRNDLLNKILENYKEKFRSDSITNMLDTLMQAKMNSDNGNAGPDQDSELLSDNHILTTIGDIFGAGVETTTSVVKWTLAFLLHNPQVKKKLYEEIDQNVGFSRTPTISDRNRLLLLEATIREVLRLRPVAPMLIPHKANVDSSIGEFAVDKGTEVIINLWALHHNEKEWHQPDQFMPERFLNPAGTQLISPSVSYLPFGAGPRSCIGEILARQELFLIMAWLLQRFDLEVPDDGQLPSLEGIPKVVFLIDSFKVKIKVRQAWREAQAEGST

[3] = target: human prostatic 5-reductase; set-up: method as in Njar et al, 1998; conditions: human prostatic microsomes; reported previously; ref Njar et al, 1998; cited from earlier work
[4] = test system: LNCaP tumour xenografts; experiment: LNCaP tumour xenograft growth in male SCID mice; assay type: in vivo; conditions: 50 mg kg-1 day-1, 28 days
Source text: as §1

[5] = test system: serum testosterone; experiment: Serum testosterone (RIA) in SCID mice; assay type: in vivo, male SCID mice; conditions: 28 days of treatment, 50 mg kg-1 day-1
Source text: as §1

[6] = test system: LNCaP cells; experiment: LNCaP cell growth in steroid-free medium; assay type: cell-based, human
Source text: Prostate cancer is the most common malignancy and the second leading cause of cancer-related deaths among men in the US and the UK (Shibata et al, 1998). […] Steroidal 17-hydroxylase/C17,20 -lyase (P450c17) (EC 1.14.99.0) was selected as the target enzyme for inhibition, as this is a key regulatory enzyme of androgen synthesis. P450c17 catal- yses two sequential reactions in the steroid biosynthetic pathway and converts pregnenolone and progesterone to the C-19 andro- gens, dehydroepiandrosterone and androstenedione respectively. This enzyme has an identical amino acid sequence in testicular and adrenal tissues (Chung et al, 1987). […] In order to evaluate the effectiveness of these inhibitors we developed a multi-step system, which utilized the LNCaP human prostate cancer cell line. LNCaP cells remain the only androgen receptor (AR)-positive prostate cancer cell line, that can be readily grown in tissue culture (Horoszewicz et al, 1983). These cells respond to androgens with increased cell proliferation and elevated expression of prostate specific antigen (PSA) (Berns et al, 1993). LNCaP cells at early passages are not only androgen-responsive, but also androgen- dependent (Pousette et al, 1997). This is similar to the situation in most tumours of prostatic cancer patients, which are initially highly responsive and dependent on androgens. […] Therefore, we employed LNCaP cells as a model for evaluating the effectiveness of our new inhibitors of androgen synthesis. In this study the compounds selected for evaluation were two groups of azolyl steroids. […] Here we report on the application of LNCaP-CYP17-transfected cells for determining the inhibitory potencies of the new compounds against the P450c17 enzyme. […] We designed and evaluated two groups of azolyl steroids: 5-non-competitive inhibitors (5NCIs), VN/63-1, VN/85-1, VN/87-1 and their corresponding 4 derivatives (4NCIs), VN/107-1, VN/108-1 and VN/109-1. The human P450c17 gene was transfected into LNCaP human prostate cancer cells, and the resultant LNCaP- CYP17 cells were utilized to evaluate the inhibitory potency of the new azolyl steroids. […] We further evaluated our inhibitors in male severe combined immuno- deficient mice bearing LNCaP tumour xenografts. […] We also utilized wild-type LNCaP prostatic carcinoma cells for evaluating the direct effects of new azolyl steroids on proliferation of these cells in vitro and in vivo. MATERIALS AND METHODS Materials The human prostate cancer cell line LNCaP was obtained from the American Type Culture Collection (Rockville, MD, USA). RPMI- 1640 medium, trypsin-EDTA (0.25%/0.02%), penicillin/strepto- mycin (P/S), geniticin (G418), and LipofectAMINE were from Gibco-BRL (Grand Island, NY, USA). […]

[7] = test system: serum DHT; experiment: Serum DHT (RIA) in SCID mice; assay type: in vivo, male SCID mice; conditions: 28 days of treatment, 50 mg kg-1 day-1
Source text: as §1

[8] = test system: serum PSA; experiment: Serum PSA (ELISA) in LNCaP tumour-bearing SCID mice; assay type: in vivo, male SCID mice; conditions: 50 mg kg-1 day-1, 28 days
Source text: Prostate cancer is the most common malignancy and the second leading cause of cancer-related deaths among men in the US and the UK (Shibata et al, 1998). […] Steroidal 17-hydroxylase/C17,20 -lyase (P450c17) (EC 1.14.99.0) was selected as the target enzyme for inhibition, as this is a key regulatory enzyme of androgen synthesis. P450c17 catal- yses two sequential reactions in the steroid biosynthetic pathway and converts pregnenolone and progesterone to the C-19 andro- gens, dehydroepiandrosterone and androstenedione respectively. This enzyme has an identical amino acid sequence in testicular and adrenal tissues (Chung et al, 1987). […] In order to evaluate the effectiveness of these inhibitors we developed a multi-step system, which utilized the LNCaP human prostate cancer cell line. LNCaP cells remain the only androgen receptor (AR)-positive prostate cancer cell line, that can be readily grown in tissue culture (Horoszewicz et al, 1983). These cells respond to androgens with increased cell proliferation and elevated expression of prostate specific antigen (PSA) (Berns et al, 1993). LNCaP cells at early passages are not only androgen-responsive, but also androgen- dependent (Pousette et al, 1997). This is similar to the situation in most tumours of prostatic cancer patients, which are initially highly responsive and dependent on androgens. […] Therefore, we employed LNCaP cells as a model for evaluating the effectiveness of our new inhibitors of androgen synthesis. In this study the compounds selected for evaluation were two groups of azolyl steroids. […] Here we report on the application of LNCaP-CYP17-transfected cells for determining the inhibitory potencies of the new compounds against the P450c17 enzyme. […] We designed and evaluated two groups of azolyl steroids: 5-non-competitive inhibitors (5NCIs), VN/63-1, VN/85-1, VN/87-1 and their corresponding 4 derivatives (4NCIs), VN/107-1, VN/108-1 and VN/109-1. The human P450c17 gene was transfected into LNCaP human prostate cancer cells, and the resultant LNCaP- CYP17 cells were utilized to evaluate the inhibitory potency of the new azolyl steroids. […] We further evaluated our inhibitors in male severe combined immuno- deficient mice bearing LNCaP tumour xenografts. […] We also utilized wild-type LNCaP prostatic carcinoma cells for evaluating the direct effects of new azolyl steroids on proliferation of these cells in vitro and in vivo. MATERIALS AND METHODS Materials The human prostate cancer cell line LNCaP was obtained from the American Type Culture Collection (Rockville, MD, USA). RPMI- 1640 medium, trypsin-EDTA (0.25%/0.02%), penicillin/strepto- mycin (P/S), geniticin (G418), and LipofectAMINE were from Gibco-BRL (Grand Island, NY, USA). Fetal bovine serum (FBS) was obtained from Summit Biotechnology Inc. (Fort Collins, CO, USA) and steroid-free FBS was prepared as described previously (Klus et al, 1996). Phenol red free IMEM and trypsin-versine were purchased from Biofluids Inc. (Rockville, MD, USA). Chloroform and acetonitrile were purchased from JT Baker, Inc (Phillipsburg, NJ, USA). Hydroxypropyl cellulose (HPC) was purchased from Sigma Chemical Co. (St Louis, MO, USA). The PSA enzyme- linked immunusorbent assay (ELISA) kit was from DSL Inc. (Webster, TX, USA). Matrigel was generously supplied by Dr Hynda Kleinman (NIH, Bethesda, MD, USA). […]

[9] = test system: LNCaP cells; experiment: Testosterone-stimulated wild-type LNCaP cell growth; assay type: cell-based, human; conditions: 0.1 nM testosterone; for Effect on testosterone-stimulated cell growth (words): 0.5-5.0 μM compound
Source text: as §1

[10] = Table 2, first experiment, control 1.043
[11] = Table 3, second experiment, control 0.205
[12] = Table 2, first experiment, control 243.8
[13] = Table 3, second experiment, control 239.2

SMILES | IC50 [2] [µM] | IC50 [3] [µM] | Serum Testosterone [5, 10] [ng/mL] | Serum Testosterone [5, 11] [ng/mL] | Serum DHT [7, 12] [pg/mL] | Serum DHT [7, 13] [pg/mL] | Stimulation of cell growth compared to DHT-treated cells [1] | also measured
C[C@]12CCC(=O)C[C@@H]1CC[C@@H]1[C@@H]2CC[C@]2(C)[C@@H](O)CC[C@@H]12 [DHT, Dihydrotestosterone, reference compound] | – | – | – | – | – | – | – | Stimulation of LNCaP cell proliferation compared to vehicle-treated cells [1]: 3.2 fold
CC(C)(C)NC(=O)[C@H]1CC[C@H]2[C@@H]3CC[C@H]4NC(=O)C=C[C@]4(C)[C@H]3CC[C@]12C [Finasteride, reference compound] | > 5 | 0.033 | 1.389 | 0.638 | 137.0 | 223.4 | – | Reduction of tumour weights compared to vehicle-treated mice ([4]; first experiment): 22%; Inhibition of LNCaP tumour growth (tumour volume) ([4]; second experiment): 29%; Reduction of tumour weights ([4]; second experiment): 28%; inhibition at 5 µM ([6]; Homo sapiens, LNCaP, 5 μM concentration): 25%; Inhibition of LNCaP cell growth in steroid-free media ([6]; concentrations of 1.0-5.0 μM, 9 days): 20-30%; Serum PSA levels versus control ([8]; first experiment): significantly lower; Serum PSA levels versus control ([8]; second experiment): significantly lower
CC(C)C(=O)Nc1ccc([N+](=O)[O-])c(C(F)(F)F)c1 [Flutamide, reference compound] | > 5 | – | – | – | – | – | 10-20% | Inhibition of testosterone stimulated cell growth ([9]; compound at 2.5 and 5.0 μM): ~ 50%
CC(=O)N1CCN(c2ccc(OCC3COC(Cn4ccnc4)(c4ccc(Cl)cc4Cl)O3)cc2)CC1 (stereo not shown) [Ketoconazole, reference compound] | – | > 5 | 1.526 | 0.298 | 224.3 | 218.0 | 10-20% | Effect on tumour growth (words) ([4]; second experiment): Neither VN/63-1, VN/107 nor ketoconazole had any appreciable effects; Effect on testosterone-stimulated cell growth (words) ([9]; 9 days): stimulate cell proliferation at low concentrations; Effect on testosterone-stimulated cell growth (words) ([9]; 9 days, listed as ketoconazole): biphasic growth responses; Stimulation of LNCaP cell growth in steroid-free media ([6]; high concentrations (2.5 and 5.0 μM), 9 days): 30-40%
C[C@]12CC[C@H]3[C@@H](CCC4=CC(=O)CC[C@@]43C)[C@@H]1CC[C@@H]2O [Testosterone, reference compound] | – | – | – | – | – | – | – | Stimulation of LNCaP cell proliferation compared to vehicle-treated control cells ([9]; 9 days): 5.8 fold
